Data as given in a melting point compilation (Tetko et al.; mined from patent text by program, amines drawn as free bases though some values may be those of a salt).

melting point [°C] | SMILES
99 to 100 | CCn1c(COCc2ccccc2)nc(C(C)C)c1Sc1cccc(Cl)c1
156 | CNC(=O)Nc1ccc2c(c1)OC(C)(CCl)O2 (stereo unspecified)
130 to 132 | COc1cc(C)c(S(=O)(=O)N(C)C)cc1[N+](=O)[O-]
164 to 165 | CCCCCCc1cc2c(cc1/C=C/c1ccc(C(=O)O)s1)C(C)(C)CCC2(C)C
118 | COc1cc(C(C)=O)ccc1OCCCCCN1CCC(C(O)(c2ccc(F)cc2)c2ccc(F)cc2)CC1
65 to 72 | CCCCCCCCCCCCCCCc1cccc(OC)c1C(=O)O
118 | CON(C)C(=O)c1cc(N)c(F)cc1Cl
88 to 91 | CCCN(CCC)C1CNc2c(cc(Br)cc2[N+](=O)[O-])C1 (stereo unspecified)
104 to 106 | Cc1cc(C(=O)N2Cc3cccn3Cc3ccccc32)cc(C)c1-n1c(C)ccc1C
94 | CNC(=O)N(C)C(=O)Nc1nc(C(Cl)(Cl)Cl)ns1
267 to 268 | O=C(O)c1ccc(C=C2CCc3cc(OCCn4ccnc4)ccc3C2=O)cc1
130 to 133 | CCN(CC)CCC(=O)NC1(c2ccccc2Cl)C(=O)N(S(=O)(=O)c2ccc3c(c2)CCN3C(=O)N(CC)CC)c2ccc(Cl)cc21 (stereo unspecified)
80 to 80.5 | CC(C)(C)SSc1nc2ccccc2s1
227 to 228 | O=C(N[C@H](Cc1ccc(C(F)(F)F)cc1)[C@@H](O)c1ccc(F)cc1)c1cccc2cc3ccccc3cc12 (racemic)
80 to 81 | COc1cc(OC)nc(Oc2cccc(Cl)c2C(=O)ON(C)C)n1
56 | COc1cc(N)ccc1-c1ccccc1
40 to 41 | COC(=O)CCc1cnoc1-c1ccc(F)cc1F
185 | CCCC1=C(C(=O)OCC)C(c2cccc(Cl)c2C)c2c[nH]nc2N1 (stereo unspecified)
55 to 56 | CC(C#N)c1cc([N+](=O)[O-])ccc1F (stereo unspecified)
199 to 200 | CC(C)C[C@@H](CO)NC(=O)[C@H](Cc1c[nH]cn1)N(C(=O)[C@H](Cc1cccc2ccccc12)NC(=O)OCc1ccccc1)C(=O)[C@@H](N)Cc1cccc2ccccc12
86 to 87 | N#CCOc1ccc2occ(CC#N)c2c1
78 to 80 | Cc1c(Oc2ncc(C(F)(F)F)cc2Cl)nn(C(=O)NC(C)C)c1C
202 to 204 | Cc1occc1C(=O)Nc1ccc(C(=O)N2Cc3ccccc3Cc3ccccc32)cc1
215 to 217 | COc1cc2c(c(OC)c1)OC(C(F)(F)F)C(C(=O)O)=C2 (stereo unspecified)

melting point [°C] | SMILES
70 to 73 | Nc1cc(Cl)cc2cccnc12
143 to 144 | COc1cc(OC)nc(Oc2cccc3c2C(=O)OC3Cl)n1 (stereo unspecified)
208 to 210 | CCn1nc(C)c2c1C(=O)Nc1ccccc1N2C(=O)CCl
69 to 71 | N#Cc1ccc2c(c1)C=CCCO2
205 | O=C(CCl)Nc1cc(C2(Cl)C=C(C(F)(F)F)C=NC2)ccc1O (stereo unspecified)
66 to 68 | CCCOc1ccc(-c2cccc(/C=C/C(=O)OCC)c2)cc1OC
179 to 180 | CCOC(=O)CCCNC(=O)c1n[nH]cc1NC(=O)c1ccccn1
225 | CC(C)c1ccc(S(=O)(=O)c2ccccc2)cc1S(=O)(=O)NC1CCN(C(=O)c2ccccc2)CC1
160 to 162 | CCN1c2c(occ(C=O)c2=O)-c2ccccc2S1(=O)=O
286 to 290 | Cc1cscc1NC(=S)Nc1c(N)c(F)c(F)c(F)c1F
155 to 157 | CN(CCOc1ccc(NS(C)(=O)=O)cc1)CCc1ccc(N)cc1
241 to 242 | Cc1ccc2c(N)c(C#N)sc2n1
178 to 180 | O=C(Nc1ccc(Oc2ccc(N3CCC(O)CC3)cc2)cc1)c1ccc(Cl)c(Cl)c1
93 | CC(=O)OCC1OC(ONc2ccc(C)cc2)C(OC(C)=O)C(OC(C)=O)C1OC(C)=O (stereo unspecified)
170 to 172 | O=C(O)COc1ccc2cc(-c3sc4ccccc4c3C(=O)Cc3ccccc3)ccc2c1Br
206 to 207 | Cn1cc(-c2nc(C(F)(F)F)c[nH]2)cn1
92 to 94 | Cc1c(NCCNCC(O)COc2ccccc2)c(=O)n(C)c(=O)n1C (stereo unspecified)
198 to 199 | CC(C)(C)c1ccnc(NC(=O)Nc2ccc(Oc3ccc(Cl)cc3)cc2)c1
196 to 201 | O=C(OCN1C(=O)c2ccccc2C1=O)c1ccccc1N=Nc1ccc(O)c(O)n1
144 to 145 | CON1C=C2N=NC3=C(N(CC(C)C)CC(C)=C3)N2C1
75 to 77 | CCOC(=O)COc1c(C)cc(C)c2c1CCC2=O
75 to 76 | Cc1nc2sc3ccccc3n2n1
310 to 312 | COc1cc(C2=Nc3ccc(N4CCCC4)cc3C(=O)C2)ccc1O
122 to 123 | CCCCN(CCCC)CCN=c1sc2ccccc2s1

melting point [°C] | SMILES
204 to 205 | Cn1c(COc2ccc(CC3SC(=O)NC3=O)cc2)nc2cc(Br)cnc21 (stereo unspecified)
80 to 83 | CCC1c2cc(Cl)ccc2-c2ccc(Cl)cc21
153 to 155 | CC(C(=O)Nc1ccc2c(c1)CC(=O)N2)N1CCC(Cc2ccccc2)CC1 (stereo unspecified)
148 to 151 | O=c1c2c(Cl)cc(Cl)cc2n(Cc2ccccc2)c(=O)n1Cc1ccc(F)cc1
49 to 53 | CN(CCO)c1ccnc(CO)c1Cl
111 | CCOC(=O)C1=C(CC)N(CCOC(=O)c2ccccc2)C(=O)NC1c1ccccc1 (stereo unspecified)
73 to 74 | CCCc1nn(-c2ccc(C(F)(F)F)cn2)cc1CCC(=O)OCC
117 | CC(O)C(CCCc1ccccc1)n1ncc2c(=O)[nH]c(Cc3ccc(Br)cc3)nc21 (stereo unspecified)
70 to 72 | Cc1ccc(S(=O)(=O)NCCO)c(C)c1
186 to 187 | CN(C)C(=O)CCC12CC(c3ccccc31)c1ccccc12
203 to 206 | Cn1c(C(F)(F)F)cc(=O)n(-c2ccc3snc(C4OCC5(CO4)CO5)c3c2)c1=O (stereo unspecified)
174 | COc1ccc(-c2cc(-c3c(-c4cccc(C)n4)nc4ccccn34)ccn2)cc1
120 to 123 | O=CN(O)C(CS(=O)(=O)c1ccc(Oc2ccc(OC(F)(F)F)cc2)cc1)CS(=O)(=O)N1CCCC1 (stereo unspecified)
89 to 90 | CCOC(=O)Cc1ccc2c(c1)CC(NC(=O)OC)CC2 (stereo unspecified)
190 to 194 | O=C(N[C@H]1CCCNC1=O)c1c(F)cccc1F
184 to 186 | CC(=O)c1ccc(Oc2ncccc2C(=O)O)cc1
237 | COc1cccc(Cn2c(C(=O)O)c(-c3ccc(C(=O)NC4CC4)cc3)c3ccccc32)c1
203 to 205 | COc1cc2c(cc1OC)-c1ccc(OC)c(OC)c1C2=Cc1ccnc2ccccc12
240 to 241 | O=C(Cn1c(-c2ccc(Cl)cc2)nc2cccnc21)NC1CCCCC1
94 to 96 | CC1(C)OCC(C(O)CN)O1 (stereo unspecified)
273 to 275 | CSc1cnc2c(-c3ccccc3)csc2c1O
171 to 173 | CS(=O)(=O)c1ccc(-c2cnn(-c3ccc(C(F)(F)F)cc3)c(=O)c2-c2ccc(F)cc2)cc1
179 to 180 | CCOC(Cc1ccc(OCc2nc(C(C)(C)C)oc2C)c2ccsc12)C(=O)O (stereo unspecified)
234 to 235 | CN(Cc1ccc(NC(=O)C2=Cc3cc(-c4cc5ccccc5o4)ccc3S(=O)(=O)CC2)cc1)C1CCOCC1

melting point [°C] | SMILES
211 to 214 | CCOc1ccccc1COc1ccc2c(c1)C=C(C(=O)Nc1ccc(CN(C)C3CCOCC3)cc1)CCS2(=O)=O
186 | Cc1cc([N+](=O)[O-])ccc1NCCNC(N)=O
184 to 185 | CC(=O)c1ccc(N(C)C)c(S(N)(=O)=O)c1
129 | Nc1cc(I)cnc1Cl
311 to 313 | O=c1cc(O)c2cccnc2n1-c1ccccc1
127 to 130 | CC1CCC(C)N1CCNc1ccnc2cc(Cl)ccc12 (stereo unspecified)
215 to 219 | COC(=O)c1ccc(-c2nc3c(O)cccc3s2)cc1
237 | CC(C)NC(=O)N1CCc2[nH]cnc2C1c1cccnc1 (stereo unspecified)
162 to 163 | CC1(C)C=C(N2CCCCC2=O)c2cc(C#N)ccc2O1
107 to 108 | CNC(=O)[C@@H](N[C@@H](C)c1ccccc1)C(C)(C)C
207 | CCN(C)c1nc2sc3c(NCc4ccncc4)ncnc3c2c2c1CCC(C)(C)C2
165 to 167 | CCn1ncc2c3ncn(CCC(C)C)c(=O)c3cnc21
103 to 105 | CNc1nc(-c2cccc(C#Cc3cccnc3)c2)c2cc(OC)c(OC)cc2n1
189 to 190 | CN(C)c1ccc(C(=CC(c2ccc(N(C)C)cc2)c2ccc(N(C)C)cc2)c2ccc(N(C)C)cc2)cc1
89 to 92 | CCC(C(=O)N(C)C)n1cc(C)c(-c2ccc(Cl)cc2C)n1 (stereo unspecified)
191 | CCCCn1ccc(-c2ccc3c(ccn3[C@H]3CC[C@H](O)CC3)c2)c(Cl)c1=O
154 to 155 | CCOC(=O)c1nc(-c2cccc(F)c2)c(-c2ccc(=O)n(C(C)C)n2)s1
126 | CCCCCOc1ccc2c(c1)C=C(CN)CO2
241 to 245 | Cc1ccc2c(=O)n(S(=O)(=O)c3ccc(Cl)cc3)c(=O)[nH]c2c1C
134 to 136 | CCOCc1nc2c(N)nc3cc(OCCCN4CCCC4=O)ccc3c2n1CCCCNC(=O)OC(C)(C)C
199 to 202 | C=C1c2ccn3c(C)c(C)nc3c2N[C@H](c2ccccc2)[C@H]1O
143 to 144 | CC(=O)NCCC1CCc2c(Cl)cc3nn(C)cc3c21 (stereo unspecified)

SMILES | melting point [°C]
O=C(CF)NC[C@H]1CN(c2ccc(N3CCN(c4ccc([N+](=O)[O-])s4)CC3)c(F)c2)C(=O)O1 | 145 to 150
NCCCCCCO[PH](=O)CC(=O)O (stereo unspecified) | 236 to 238
O=C(NC1CCCCC1)NC1N=C(C2CCCCC2)c2ccccc2N(CC(=O)N2CC3CCC(CC3)C2)C1=O (racemic) | 195 to 197
N#Cc1cc(Br)c(NC(=O)NC(=O)c2c(F)cccc2F)cc1Cl | 247
Cc1cc(C(O)C(Cl)(Cl)Cl)n(C)c1 (stereo unspecified) | 55 to 57
CN(C)C(=O)Oc1cccc(-c2cc(=O)c3cc(N(C)C)ccc3o2)c1 | 167 to 168
Cn1cncc1C(c1ccc(Cl)cc1)c1ccc2c(c1)C(c1cccc(Cl)c1)SCC(=O)N2 (stereo unspecified) | 187
